Assay results reported in patent US20100035896A1, “Combination of N-(3-methoxy-5-methylpyrazin-2-yl)-2-(4-[1,3,4-oxadiazol-2-yl]phenyl)pyridine-3-sulphonamide and an anti-mitotic cytotoxic agent” (ASTRAZENECA AB, priority 2004, published 2010).
Ends that are not written are not given here.

Assays:
[1] = tested on: Human prostate tumour cells (PPC-1); experiment: Viable cell numbers of prostate tumour cells by MTT assay; format: cell-based; settings: PPC-1 cells, FIG. 3; for numbers of viable prostate cells remaining in culture: cytotoxic alone at 10^-6, 10^-8 or 10^-10 M for 24 hours
Excerpt: ** OVCA 433 was established from ascites obtained from a patient with advanced serous ovarian adenocarcinoma (Tsa, S W et al., (1995) Exp. Cell Res. 218: 499-507) and HEY was derived from a xenograft of a peritoneal deposit of a cystoadeonocarcinoma of the ovary (Buick, R. N. et al., (1985) Cancer Research 45: 3668-3676). PPC-1 cells were originally derived from a human prostate tumour and were obtained from the laboratory of Dr. J. Nelson, University of Pittsburgh).
(§1) In vitro studies in ovarian cells: Human ovarian tumour cell lines (OVCA 433 and HEY) were maintained in culture media containing serum until sufficient numbers were available for experimentation. At this time the cells were transferred into media without serum. After 24 hours of serum starvation, cells were treated with either Compound (I) (1 μM) or paclitaxel (60 nM), or Compound (I)+paclitaxel. Following treatment for 24 hours, apoptosis was measured by a standard cell detection ELISA Plus kit (Boehringer Manheim). In vitro studies in prostate cells: Human prostate tumour cells (PPC-1) were maintained in culture medium containing serum until sufficient numbers were available for experimentation. After this time cells were transferred into media without serum. After 23 hours of serum starvation cells were treated with either endothelin 1 (10^−7M) or endothelin 1+Compound (I) at 10^−7M. An additional group of cells received vehicle control alone. One hour later cells were treated with paclitaxel or docetaxel at either 10^−6M, 10^−8M or 10^−10M for 24 hours. At the end of this 24 hour period, viable cell numbers were measured by a standard MTT assay (Mossman, J Inmunol Methods. (1983) 65, 55-63). In vivo studies: Athymic mice were given subcutaneous injections of 1.5×10^6 HEY cells into the flank. After 7 days, when established tumours had formed, mice were randomized to 4 treatment groups with 10 mice in each group. One group was treated with Compound (I) given by daily intraperitoneal injections (10 mg/kg/day) for 21 days. A second group received intravenous injections of paclitaxel (20 mg/kg) every 4 days for 3 doses. A third group received both paclitaxel and Compound (I) and a fourth group was given injections in the same way using vehicle alone. The experiments were replicated three times.

[2] = tested on: Human ovarian tumour cell lines (OVCA 433 and HEY); experiment: Apoptosis in serum-starved ovarian tumour cell lines, cell detection ELISA Plus kit; format: cell-based; settings: HEY and OVCA 433 cells, 24 h serum starvation, 24 h treatment; Compound (I) 1 μM, paclitaxel 60 nM, alone or combined; FIG. 1
Excerpt: To evaluate the effect of Compound (I) in combination with an anti-mitotic cytotoxic agent (paclitaxel) on the growth of various carcinoma cells, we utilised two established human ovarian cell lines (HEY and OVCA 433**) which express functional endothelin A (ETa) receptors and secrete high levels of endothelin-1 (ET-1). ET-1 is an anti-apoptotic factor in many cell types, having this effect via ETa receptors. ** OVCA 433 was established from ascites obtained from a patient with advanced serous ovarian adenocarcinoma (Tsa, S W et al., (1995) Exp. Cell Res. 218: 499-507) and HEY was derived from a xenograft of a peritoneal deposit of a cystoadeonocarcinoma of the ovary (Buick, R. N. et al., (1985) Cancer Research 45: 3668-3676). PPC-1 cells were originally derived from a human prostate tumour and were obtained from the laboratory of Dr. J. Nelson, University of Pittsburgh). In vitro studies in ovarian cells: Human ovarian tumour cell lines (OVCA 433 and HEY) were maintained in culture media containing serum until sufficient numbers were available for experimentation. […] Following treatment for 24 hours, apoptosis was measured by a standard cell detection ELISA Plus kit (Boehringer Manheim). […] At the end of this 24 hour period, viable cell numbers were measured by a standard MTT assay (Mossman, J Inmunol Methods. (1983) 65, 55-63). […]

[3] = tested on: HEY ovarian cell xenografts; experiment: Growth of subcutaneous HEY ovarian carcinoma xenografts in athymic mice; format: in vivo; settings: Compound (I) 10 mg/kg/day i.p. for 21 days, paclitaxel 20 mg/kg i.v. every 4 days for 3 doses, alone or both, FIG. 2
Description: as §1, with “After 7 days, when established tumours had formed, mice were randomized to 4 treatment groups with 10 mice in each group. One group was treated with Compound (I) given by daily intraperitoneal injections (10 mg/kg/day) for 21 days. A second group received intravenous injections of paclitaxel (20 mg/kg) every 4 days for 3 doses. A third group received both paclitaxel and Compound (I) and a fourth group was given injections in the same way using vehicle alone. The experiments were replicated three times.” left out

| Compound | effect on the paclitaxel- or docetaxel-induced reduction in viable cell number ([1]; endothelin 1 10^-7 M given one hour before paclitaxel or docetaxel) | effect on apoptosis [2] | numbers of viable prostate cells remaining in culture [1] | inhibition of HEY ovarian cell xenografts (tumour growth) [3] | effect on the endothelin-1 reversal of cytotoxic-induced reduction in viable cell number ([1]; endothelin 1 10^-7 M + Compound (I) 10^-7 M, one hour before paclitaxel or docetaxel) |
| --- | --- | --- | --- | --- | --- |
| endothelin-1 (CSCSSLMDKECVYFCHLDIIW; ends and bridges not checked; cysteine pairing not given here; UniProt P05305 53-73, looked up) [endogenous 21 amino acid peptide, anti-apoptotic factor acting via ETa receptors] | reversed | – | – | – | – |
| CC(=O)O[C@H]1C(=O)[C@@]2(C)[C@H]([C@H](OC(=O)c3ccccc3)[C@]3(O)C[C@H](OC(=O)[C@H](O)[C@@H](NC(=O)c4ccccc4)c4ccccc4)C(C)=C1C3(C)C)[C@]1(OC(C)=O)CO[C@@H]1C[C@@H]2O [paclitaxel, Paclitaxel] | – | no statistically significant effects | significantly reduced | degree of inhibition was similar | – |
| CC(=O)O[C@@]12CO[C@@H]1C[C@H](O)[C@@]1(C)C(=O)[C@H](O)C3=C(C)[C@@H](OC(=O)[C@H](O)[C@@H](NC(=O)OC(C)(C)C)c4ccccc4)C[C@@](O)([C@@H](OC(=O)c4ccccc4)[C@H]21)C3(C)C [docetaxel, Docetaxel] | – | – | significantly reduced | – | – |
| COc1nc(C)cnc1NS(=O)(=O)c1cccnc1-c1ccc(-c2nnco2)cc1 [Compound (I), N-(3-methoxy-5-methylpyrazin-2-yl)-2-(4-[1,3,4-oxadiazol-2-yl]phenyl)pyridine-3-sulphonamide] | – | no statistically significant effects | – | significant inhibition | blocked |
